PMC9369712 (2022)

Assays:
[1] = test system: TP3-T6 (DNA, G4) TGGGGTCCGAGGCGGGGCTTGGG; test: 1H NMR titration (imino protons); conditions: 70 mM KCl, 20 mM KH2PO4, pH 7.0, 25 °C, 90% H2O
[2] = test system: TP3-T6 (DNA, G4) TGGGGTCCGAGGCGGGGCTTGGG; test: CD melting at 265 nm; conditions: 70 mM KCl; 20 mM phosphate pH 7.1; 2 µM DNA, 6 µM ligand; no stabilization
[3] = test system: TP3-T6 (DNA, G4) TGGGGTCCGAGGCGGGGCTTGGG; test: CD melting; conditions: 70 mM KCl; 20 mM phosphate pH 7.1; 2 µM DNA, DNA:ligand 1:3

SMILES | binding ([1]; 3'-end tetrad) | also measured
Cc1cc2c3c([n+](C)c4ccc(F)cc4c3c1)-c1cc(F)ccc1N2C |  | binding ([1]; 5'-terminal tetrad signals broadened): yes
Cc1cnc(CNC(=O)c2c(=O)c3ccc(N4CCCN(C)CC4)nc3n3c2sc2ccccc23)cn1 | yes | 
CN(C)CCNC(=O)c1cccn2c(=O)c3cc4ccccc4cc3nc12 | yes | 
CN(C)CCNC(=O)c1cccn2c(=O)c3sc4ccccc4c3nc12 | yes | binding [2]: yes
NCCOc1cc(C(=O)Nc2cc(OCCN)c3ccccc3n2)nc(C(=O)Nc2cc(OCCN)c3ccccc3n2)c1 |  | ΔTm [3]: > 30 °C
